Experimental data: patent US20230114728A1 (Venatorx Pharmaceuticals, Inc., priority 2019, published 2023)
In brackets after ≈: the same amount, converted by molar mass.

Assays:
E. coli K12 PBP3 = target: T1, E. coli K12 PBP3 (Escherichia coli, UniProt P0AD68); assay: biochemical; format: binding
T1 construct: made in house
Outline: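 Fluorescence polarization (ex 490/em 520 nm) competition of inhibitors against Bocillin-FL at 0.1 μM, read up to 60 min. Final PBP levels: E. coli PBP3 1.5 μM; A. baumannii PBP2 2.5 μM, PBP3 0.2 μM in Tris pH 8.0/NaCl/glycerol/Tween 20; N. gonorrhoeae PBP2 […] in Hepes pH 8.0/NaCl/glycerol. EC50 = concentration halving PBP-bound Bocillin-FL.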

[1] = tested on: N. gonorrhoeae ATCC 49226; assay: Liquid broth MIC in Fastidious broth; format: cell-based; settings: Neisseria gonorrhoeae, ATCC49226; N. gonorrhoeae strain ATCC 49226; Fastidious broth; read-out: Minimum Inhibitory Concentration, N. gonorrhoeae ATCC 49226
Outline: (§1)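 Colonies were swabbed from chocolate agar after 24 h growth and standardised by optical density at 600 nm. Compounds were serially diluted twofold in Fastidious broth, and bacteria added to give 5×10^5 CFU/mL. After about 24 h at 36 °C in 5% CO2, the lowest concentration allowing under 10% growth was taken as MIC.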

N. gonorrhoeae FA1090 = assay: Liquid broth MIC in Fastidious broth; format: cell-based; settings: Neisseria gonorrhoeae; N. gonorrhoeae strain FA1090; Fastidious broth; read-out: Minimum Inhibitory Concentration, N. gonorrhoeae FA1090
Outline: as §1

N. gonorrhoeae H041 = assay: Liquid broth MIC in Fastidious broth; format: cell-based; settings: Neisseria gonorrhoeae, H041, read-out: Minimum Inhibitory Concentration, N. gonorrhoeae H041
Outline: (§2)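 Broth microdilution against gonococcal strains expressing mosaic PBP2, starting inoculum 5×10^5 CFU/mL in Fastidious broth. Incubation runs ~24 h at 36 °C under 5% CO2, with MIC scored visually at <10% of full growth.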

N. gonorrhoeae WHO G = assay: Liquid broth MIC in Fastidious broth; format: cell-based; settings: Neisseria gonorrhoeae; N. gonorrhoeae strain WHO G; Fastidious broth; read-out: Minimum Inhibitory Concentration, N. gonorrhoeae WHO G
Outline: as §1

N. gonorrhoeae WHO K = assay: Liquid broth MIC in Fastidious broth; format: cell-based; settings: Neisseria gonorrhoeae, read-out: Minimum Inhibitory Concentration, N. gonorrhoeae WHO K
Outline: as §2

N. gonorrhoeae WHO L = assay: Liquid broth MIC in Fastidious broth; format: cell-based; settings: Neisseria gonorrhoeae; N. gonorrhoeae strain WHO L; Fastidious broth; read-out: Minimum Inhibitory Concentration, N. gonorrhoeae WHO L
Outline: as §1

N. gonorrhoeae WHO Q = assay: Liquid broth MIC in Fastidious broth; format: cell-based; settings: Neisseria gonorrhoeae, read-out: Minimum Inhibitory Concentration, N. gonorrhoeae WHO Q
Outline: as §2

N. gonorrhoeae WHO Z = assay: Liquid broth MIC in Fastidious broth; format: cell-based; settings: Neisseria gonorrhoeae, read-out: Minimum Inhibitory Concentration, N. gonorrhoeae WHO Z
Outline: as §2

P. aeruginosa PBP3 = target: T2, P. aeruginosa PBP3 (Pseudomonas aeruginosa, UniProt G3XD46); assay: Bocillin-FL fluorescence polarization competition binding assay, P. aeruginosa PBP3; settings: fluorescence polarization competition binding assay using Bocillin-FL
T2 construct: made in house
Outline: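 Binding of boronic acid inhibitors to purified Pseudomonas aeruginosa (PA01) PBP3 was measured by fluorescence polarization competition with Bocillin-FL, a fluorescent penicillin V. Reactions of 80 μl contained 0.75 μM PBP3 and 0.1 μM Bocillin-FL in 50 mM Hepes (pH 8.0), 300 mM NaCl and 5% (v/v) glycerol, in black 384-well plates. FP (Excitation 490 nm, Emission 520 nm) was read for up to 60 minutes. EC50 is the concentration that halves PBP-bound Bocillin-FL.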

T1 sequence (P0AD68 1-577): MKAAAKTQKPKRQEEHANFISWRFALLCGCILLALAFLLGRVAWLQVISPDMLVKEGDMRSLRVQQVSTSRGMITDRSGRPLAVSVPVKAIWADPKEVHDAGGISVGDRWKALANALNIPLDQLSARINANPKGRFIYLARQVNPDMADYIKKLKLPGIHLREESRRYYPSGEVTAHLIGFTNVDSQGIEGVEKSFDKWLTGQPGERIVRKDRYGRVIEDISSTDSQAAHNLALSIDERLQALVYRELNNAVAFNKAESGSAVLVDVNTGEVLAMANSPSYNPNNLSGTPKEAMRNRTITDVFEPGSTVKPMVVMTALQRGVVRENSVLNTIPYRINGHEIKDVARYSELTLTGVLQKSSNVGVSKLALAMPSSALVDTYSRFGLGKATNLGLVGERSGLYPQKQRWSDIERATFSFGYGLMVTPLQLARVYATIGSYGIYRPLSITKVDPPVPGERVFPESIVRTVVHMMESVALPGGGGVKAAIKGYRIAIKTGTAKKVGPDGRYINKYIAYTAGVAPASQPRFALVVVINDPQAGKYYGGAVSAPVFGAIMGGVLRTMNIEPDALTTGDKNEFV
T2 sequence (G3XD46 whole entry): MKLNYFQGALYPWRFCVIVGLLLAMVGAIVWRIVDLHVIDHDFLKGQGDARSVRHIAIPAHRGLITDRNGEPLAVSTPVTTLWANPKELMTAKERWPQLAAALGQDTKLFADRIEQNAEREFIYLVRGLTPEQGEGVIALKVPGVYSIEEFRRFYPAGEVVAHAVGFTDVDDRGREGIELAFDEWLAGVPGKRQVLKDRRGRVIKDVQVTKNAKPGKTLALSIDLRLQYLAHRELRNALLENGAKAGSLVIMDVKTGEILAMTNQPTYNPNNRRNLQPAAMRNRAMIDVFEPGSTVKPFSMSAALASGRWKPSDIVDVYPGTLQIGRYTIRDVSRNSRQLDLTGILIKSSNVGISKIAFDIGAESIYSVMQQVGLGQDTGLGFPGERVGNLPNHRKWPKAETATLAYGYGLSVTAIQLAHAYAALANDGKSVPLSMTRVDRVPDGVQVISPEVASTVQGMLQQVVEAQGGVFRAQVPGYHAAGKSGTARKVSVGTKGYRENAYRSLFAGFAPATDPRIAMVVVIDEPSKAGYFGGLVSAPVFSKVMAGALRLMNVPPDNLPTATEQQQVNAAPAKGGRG

Row | SMILES | EC50 (E. coli K12 PBP3) | MIC [1] | MIC (N. gonorrhoeae FA1090) | MIC (N. gonorrhoeae H041) | MIC (N. gonorrhoeae WHO G) | MIC (N. gonorrhoeae WHO K) | MIC (N. gonorrhoeae WHO L) | MIC (N. gonorrhoeae WHO Q) | MIC (N. gonorrhoeae WHO Z) | P. aeruginosa PBP3 Potency (P. aeruginosa PBP3)
1 | O=C(O)c1cccc2c1OB(O)[C@@H](NC(=O)C(NC(=O)N1CCN(CCF)C(=O)C1=O)c1c(F)cc(O)cc1F)C2 (mixture of isomers) [Example 119, (3R)-3-(2-(2,6-difluoro-4-hydroxyphenyl)-2-(4-(2-fluoroethyl)-2,3-dioxopiperazine-1-carboxamido)acetamido)-2-hydroxy-3,4-dihydro-2H-benzo[e][1,2]oxaborinine-8-carboxylic acid] | < 30 µM | 16 to 32 µg/mL (≈ 27.7 to 55.3 µM) | 0.25 to 0.5 µg/mL (≈ 0.432 to 0.865 µM) | > 64 µg/mL | 1 to 2 µg/mL (≈ 1.73 to 3.46 µM) | 16 to 32 µg/mL (≈ 27.7 to 55.3 µM) | 16 to 32 µg/mL (≈ 27.7 to 55.3 µM) | 16 to 32 µg/mL (≈ 27.7 to 55.3 µM) | 4 to 8 µg/mL (≈ 6.92 to 13.8 µM) | 
2 | NCCN1CCN(C(=O)N[C@H](C(=O)N[C@H]2Cc3cccc(C(=O)O)c3OB2O)c2c(F)cc(O)cc2F)C(=O)C1=O (single isomer, unassigned) [Example 110] | 30 to 500 µM | > 64 µg/mL | 16 to 32 µg/mL (≈ 27.8 to 55.6 µM) | > 64 µg/mL | > 64 µg/mL | > 64 µg/mL | > 64 µg/mL | > 64 µg/mL | > 64 µg/mL | B (B represents a potency between 30 μM and 500 μM inclusive)
3 | NCCN1CCN(C(=O)N[C@@H](C(=O)N[C@H]2Cc3cccc(C(=O)O)c3OB2O)c2c(F)cc(O)cc2F)C(=O)C1=O (single isomer, unassigned) [Example 111] | < 30 µM | 16 to 32 µg/mL (≈ 27.8 to 55.6 µM) | 1 to 2 µg/mL (≈ 1.74 to 3.48 µM) | > 64 µg/mL | 4 to 8 µg/mL (≈ 6.95 to 13.9 µM) | > 64 µg/mL | > 64 µg/mL | > 64 µg/mL | > 64 µg/mL | D (D represents a potency <10 μM)
4 | NCCN1CCN(C(=O)N[C@@H](C(=O)N[C@H]2Cc3cccc(C(=O)O)c3OB2O)c2cccc(NS(N)(=O)=O)c2)C(=O)C1=O (single isomer, unassigned) [Example 114] | 30 to 500 µM | > 64 µg/mL | 4 to 8 µg/mL (≈ 6.48 to 13 µM) | > 64 µg/mL | 16 to 32 µg/mL (≈ 25.9 to 51.8 µM) | > 64 µg/mL | > 64 µg/mL | > 64 µg/mL | > 64 µg/mL | D (D represents a potency <10 μM)
5 | NCCN1CCN(C(=O)N[C@H](C(=O)N[C@H]2Cc3cccc(C(=O)O)c3OB2O)c2cccc(NS(N)(=O)=O)c2)C(=O)C1=O (single isomer, unassigned) [Example 115] | 30 to 500 µM | > 64 µg/mL | 4 to 8 µg/mL (≈ 6.48 to 13 µM) | > 64 µg/mL | > 64 µg/mL | > 64 µg/mL | > 64 µg/mL | > 64 µg/mL | > 64 µg/mL | C (C represents a potency between 10 and 30 μM)
6 | NC1(CN2CCN(C(=O)N[C@@H](C(=O)N[C@H]3Cc4cccc(C(=O)O)c4OB3O)c3c(F)cc(O)cc3F)C(=O)C2=O)CC1 (single isomer, unassigned) [Example 121] | < 30 µM | 16 to 32 µg/mL (≈ 26.6 to 53.2 µM) | 1 to 2 µg/mL (≈ 1.66 to 3.33 µM) | > 64 µg/mL | 16 to 32 µg/mL (≈ 26.6 to 53.2 µM) | > 64 µg/mL | > 64 µg/mL | > 64 µg/mL | > 64 µg/mL | D (D represents a potency <10 μM)
7 | NC1(CN2CCN(C(=O)N[C@H](C(=O)N[C@H]3Cc4cccc(C(=O)O)c4OB3O)c3c(F)cc(O)cc3F)C(=O)C2=O)CC1 (single isomer, unassigned) [Example 122] | < 30 µM | > 64 µg/mL | 4 to 8 µg/mL (≈ 6.65 to 13.3 µM) | > 64 µg/mL | > 64 µg/mL | > 64 µg/mL | > 64 µg/mL | > 64 µg/mL | > 64 µg/mL | D (D represents a potency <10 μM)
